“Also recorded” adds a separate entry of the source. Marks after values point to notes of the source that are not given here. Where a SMILES comes first, the peptide text is derived from it. [ ]: non-standard residue; d: D form. Phe(2,4,6-Me3) = Cc1cc(C)c(C[C@H](N)C(=O)O)c(C)c1; pGlu = O=C1CC[C@@H](C(=O)O)N1
Experiments:
[1] = In vitro stability, half-life in human plasma; format: in vitro ADME; details: 90% human plasma, 37° C., RP-HPLC; read-out: t½ (hours) in human plasma (converted)
Experimental: The peptides and peptide dimer synthesized and prepared in accordance with Example 1 were dissolved in water at a concentration of 6 mg/mL and warmed up to 37° C.
Human plasma was obtained as a lyophilized solid (K3 EDTA Plasma, BBI Solutions, code S112-1), reconstituted with sterile 0.9% sodium chloride solution and stored at −20° C. Human plasma was thawed and incubated at 37° C. before use.
The peptides and peptide dimer were incubated in 90% human plasma at 37° C. for different times and then precipitated with two volume equivalents of methanol. The samples were cooled in an acetone-carbon dioxide bath for a few seconds and centrifuged for 12 minutes at 4° C. at approximately 10,000 rpm. The supernatant was filtered with a 0.45 μm PVDF filter and analyzed in triplicate by RP-HPLC using an isocratic method (Eluent A=0.1% TFA in water; Eluent B=0.07% TFA in ACN, Column=Kromasil C8, 100 Å, 5 μm, 250×4.6 mm, Flow=1 mL/min, Wavelength: 220 nm, Injection volume=20 μL, Temperature=60° C.). The disappearance of the compound was determined in relation to the area of the initial time to calculate its half-life.

[2] = tested on: RH30 rhabdomyosarcoma cells; experiment: Matrigel-coated transwell invasion assay, RH30 cells; format: cell-based; details: for % Invasiveness RH30: % invasive cells vs non-treated control
Experimental: (§1) 10^5 RH30 or RD cells were plated in the upper chamber of a Matrigel-coated transwell (Corning) in 0.1 mL medium without FBS. Cells were previously incubated with different concentrations (0 nM, 100 nM, 200 nM, 500 nM and 1000 nM) of the peptides and peptide dimer for 48 hours, being also present in the medium during the cell invasion assay. In the lower chamber, 0.6 mL of medium with FBS was added. Cells were incubated at 37° ° C. for 24 hours.
(§2) After that, cells were fixed with 4% paraformaldehyde (Sigma) for 10 minutes, followed by washing with PBS. After removal of the Matrigel and remaining cells from the upper face of the membrane with a cotton swab, the cells present on the lower face were stained with a Hoechst dilution (Sigma) and were counted (5 fields for each well) with an inverted fluorescence microscope Nikon with a 10× objective. All experiments were made in triplicate. In Table 6 the % Invasiveness represents the mean percentage of invasive cells with respect to their controls.

[3] = tested on: RD rhabdomyosarcoma cells; experiment: Matrigel-coated transwell invasion assay, RD cells; format: cell-based; details: % invasive cells vs non-treated control
Experimental: as §1, §2

[4] = tested on: CHLA-90 neuroblastoma cells; experiment: Transwell invasion assay, CHLA-90 cells; format: cell-based
Experimental: as §1, §2
(§3) The transwell assay with CHLA-90 and BE(2)-C cell lines was done following the same conditions detailed for determining the % of invasiveness in rhabdomyosarcoma cells.
(§4) The transwell assay with neuroblastoma cell lines (CHLA-90, BE(2)-C and SK—N-BE(2)-C)) and breast cancer cell lines (MDA-MB-231 and MDA-MB-468) was performed at the same conditions detailed for determining the % of invasiveness in rhabdomyosarcoma cells.

[5] = tested on: BE(2)-C neuroblastoma cells; experiment: Transwell invasion assay, BE(2)-C cells; format: cell-based
Experimental: as §1, §2, §3, §4

[6] = tested on: SK-N-BE(2)-C neuroblastoma cells; experiment: Transwell invasion assay, SK-N-BE(2)-C cells; format: cell-based
Experimental: as §1, §2, §4

[7] = tested on: MDA-MB-231 breast cancer cells; experiment: Transwell invasion assay, MDA-MB-231 cells; format: cell-based
Experimental: as §1, §2, §4

[8] = tested on: MDA-MB-468 breast cancer cells; experiment: Transwell invasion assay, MDA-MB-468 cells; format: cell-based
Experimental: as §1, §2, §4

[9] = tested on: RD rhabdomyosarcoma cells; experiment: Rhabdomyosarcoma metastatic mice model (RD cells i.v. in tail vein); format: in vivo, SCID/Beige mice; details: for event-free survival vs vehicle group (in words): 27-week study; for Absence of metastases, number of mice / Absence of metastases, percentage of mice / Presence of metastases (%), percentage of mice / Presence of metastases, number of mice: 27 weeks; for body weight, treated vs vehicle-treated mice (in words): along the 27-week study
Experimental: SCID/Beige female mice aged of 5 weeks were administered subcutaneously (s.c.) at day −1 with the first dose of treatment i.e. the vehicle (PBS, Phosphate buffered saline) or the peptides. On day 0, mice were injected intravenously (i.v.) in the tail vein with 2×10^6 RD rhabdomyosarcoma cells.
Body weight was evaluated twice per week for 27 weeks. Overall survival and event-free survival were determined. At necropsy, the total number of metastases were quantified and the number of metastases per mice and their localization were also reported.

[10] = tested on: BE(2)-C neuroblastoma cells; experiment: Neuroblastoma metastatic mice model (BE(2)-C cells i.v. in tail vein); format: in vivo, SCID/Beige mice; details: for Absence of metastases, number of mice / Absence of metastases, percentage of mice / Presence of metastases (%), percentage of mice / Presence of metastases, number of mice: 13 weeks; for event-free survival, percentage of mice / event-free survival, number of mice: 13-week study; for event-free survival, number of mice: of 9 mice
Experimental: SCID/Beige female mice aged 5 weeks were administered subcutaneously (s.c.) at day −1 with the first dose of treatment, this is the vehicle (PBS) or the peptide SEQ ID NO: 7-NH2 at doses of 1 mg/kg and 2 mg/kg. On day 0, mice were injected intravenously (i.v.) in the tail vein with 2×10^5 BE(2)-C neuroblastoma cells. Afterwards, mice were treated s.c. three times per week (every 2-3 days) for 13 weeks with vehicle PBS (n=8) and SEQ ID NO: 7—NH2 1 mg/kg (n=9) and 2 mg/kg (n=9).

[11] = 0.5 mg/kg s.c. three times per week
[12] = 2 mg/kg s.c. three times per week
[13] = 1 mg/kg s.c. three times per week

## CSCC[C@H](NC(=O)[C@H](CO)NC(=O)[C@H](CC(N)=O)NC(=O)[C@H](CO)NC(=O)[C@H](CO)NC(=O)[C@H](CC(=O)O)NC(=O)[C@H](CCCNC(=N)N)NC(=O)[C@H](CCCCN)NC(=O)[C@@H]1CCC(=O)N1)C(=O)N[C@@H](CC(=O)O)C(=O)N[C@@H](CC(C)C)C(=O)N1CCC[C@H]1C(=O)N[C@@H](CCC(=O)O)C(=O)N[C@@H](Cc1c(C)cc(C)cc1C)C(=O)N[C@@H](CCCCN)C(N)=O [SEQ ID NO: 7-NH2, Pyr-Lys-Arg-Asp-Ser-Ser-Asn-Ser-Met-Asp-Leu-Pro-Glu-Msa-Lys-NH2] ([pGlu]KRDSSNSMDLPE[Phe(2,4,6-Me3)]K-NH2)
[1]
  half-life at 0.6 mg/mL: 40.5 h
[2]; 100 nM peptide
  % Invasiveness RH30: 121.38%
[2]; 200 nM peptide
  % Invasiveness RH30: 77.38%
[2]; 500 nM peptide
  % Invasiveness RH30: 65.59%
[2]; 1000 nM peptide
  % Invasiveness RH30: 63.23%
[2]; concentration not stated (100-1000 nM tested)
  effect on % invasiveness of RH30 cell line (in words): diminishing % invasiveness without reaching significance
[3]; 100 nM peptide
  % Invasiveness RD: 30.82* %
[3]; 100 nM peptide, listed as SEQ ID NO: 7—NH2
  % Invasiveness RD: below 50%
[3]; 200 nM peptide
  % Invasiveness RD: 22.94* %
[3]; 500 nM peptide
  % Invasiveness RD: 17.60* %
[3]; 1000 nM peptide
  % Invasiveness RD: 19.68* %
[4]; 100 nM peptide
  % Invasiveness CHLA-90: 94.31%
[4]; 200 nM peptide
  % Invasiveness CHLA-90: 52.37%
[4]; 500 nM peptide
  % Invasiveness CHLA-90: 38.94%
[4]; 1000 nM peptide
  % Invasiveness CHLA-90: 20.37* %
[4]; concentration not given
  effect on CHLA-90 cell invasiveness (in words): significant reduction in cell invasiveness
[5]; 100 nM peptide
  % Invasiveness BE(2)-C: 95.15%
[5]; 200 nM peptide
  % Invasiveness BE(2)-C: 60.70* %
[5]; 500 nM peptide
  % Invasiveness BE(2)-C: 56.72* %
[5]; 1000 nM peptide
  % Invasiveness BE(2)-C: 33.21* %
[5]; concentration not given
  effect on BE(2)-C cell invasiveness (in words): significant reduction in cell invasiveness
[6]; 100 nM peptide
  % Invasiveness SK-N-BE(2)-C: 84.35%
[6]; 200 nM peptide
  % Invasiveness SK-N-BE(2)-C: 91.84%
[6]; 500 nM peptide
  % Invasiveness SK-N-BE(2)-C: 73.31* %
[6]; 500 nM peptide, listed as SEQ ID NO: 7—NH2
  % Invasiveness SK-N-BE(2)-C: efficacious in inhibiting invasiveness; also recorded: significant reduction
[6]; 1000 nM peptide
  % Invasiveness SK-N-BE(2)-C: 52.70* %
[7]; 100 nM peptide
  % Invasiveness MDA-MB-231: 111.82%
[7]; 200 nM peptide
  % Invasiveness MDA-MB-231: 109.71%
[7]; 500 nM peptide
  % Invasiveness MDA-MB-231: 99.97%
[7]; 1000 nM peptide (highest treatment dose)
  % Invasiveness MDA-MB-231: 53.69%
[7]; 1000 nM peptide (highest treatment dose), listed as SEQ ID NO: 7—NH2
  % Invasiveness MDA-MB-231: moderate reduction
[8]; 100 nM peptide
  % Invasiveness MDA-MB-468: 96.71%
[8]; 200 nM peptide
  % Invasiveness MDA-MB-468: 57.65%
[8]; 500 nM peptide
  % Invasiveness MDA-MB-468: 54.53* %
[8]; 1000 nM peptide
  % Invasiveness MDA-MB-468: 48.39* %
[8]; under treatment, concentration not given
  effect on MDA-MB-468 invasiveness (in words): clear reduction of invasiveness
[9]; 0.5 mg/kg (lower dose)
  event-free survival vs vehicle group (in words): did not show statistically significant difference; also recorded: did not show a significant effect
[9]; [11]
  Absence of metastases, number of mice: 1
  Absence of metastases, percentage of mice: 17%
  Presence of metastases (%), percentage of mice: 83%
  Presence of metastases, number of mice: 5
[9]; 0.5 mg/kg
  body weight, treated vs vehicle-treated mice (in words): vehicle-treated mice showed a statistically significant lower body weight
[9]; 0.5 mg/kg, vs PBS-treated mice
  reduction in metastases formation: ~15%
[9]; 2 mg/kg (higher dose), at necropsy
  number of metastases per mouse vs vehicle (in words): statistically reduced the formation of metastases per mouse; also recorded: efficacious in the reduction of the number of metastases
[9]; [12]
  Absence of metastases, number of mice: 5
  Absence of metastases, percentage of mice: 71%
  Presence of metastases (%), percentage of mice: 29%
  Presence of metastases, number of mice: 2
[9]; 2 mg/kg, Log-rank
  event-free survival vs vehicle group (in words): significant difference
[9]; 2 mg/kg
  body weight, treated vs vehicle-treated mice (in words): vehicle-treated mice showed a statistically significant lower body weight
[10]; [13]
  Absence of metastases, number of mice: 2
  Absence of metastases, percentage of mice: 22%
  Presence of metastases (%), percentage of mice: 78%
  Presence of metastases, number of mice: 7
[10]; 1 mg/kg
  event-free survival, percentage of mice: 22%
  event-free survival, number of mice: 2
[10]; [12]
  Absence of metastases, number of mice: 5
  Absence of metastases, percentage of mice: 56%
  Presence of metastases (%), percentage of mice: 44%
  Presence of metastases, number of mice: 4
[10]; 2 mg/kg
  event-free survival, percentage of mice: 56%
  event-free survival, number of mice: 5

From US12544431B2, “Peptides for the treatment of cancer and/or metastasis” (BCN PEPTIDES, S.A., priority 2019, dated 2026)
